Laboratory results taken from PubChem BioAssay (NCI).
Several values for one entry are separate records, joined by “and”; a condition that tells them apart may be missing. Identical values can stand only once.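 Method: 48-hour compound exposure of cells in 96-well plates, five concentrations, linear interpolation of endpoints. GI50 = concentration required for 50% inhibition of growth. Definition used: TGI = concentration required for complete inhibition of growth.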

How the values were obtained:
Experiment in all cases: NCI tumour cell line growth inhibition, 48 h
BT-549 breast = test system: BT-549 breast
EKVX NSCLC = test system: EKVX NSCLC
HCC-2998 colon = test system: HCC-2998 colon
HCT-116 colon = test system: HCT-116 colon
HL-60(TB) leukemia = test system: HL-60(TB) leukemia
HS 578T breast = test system: HS 578T breast
MALME-3M melanoma = test system: MALME-3M melanoma
OVCAR-4 ovarian = test system: OVCAR-4 ovarian
PC-3 prostate = test system: PC-3 prostate
RPMI-8226 leukemia = test system: RPMI-8226 leukemia
SK-MEL-28 melanoma = test system: SK-MEL-28 melanoma
UACC-257 melanoma = test system: UACC-257 melanoma
UACC-62 melanoma = test system: UACC-62 melanoma
UO-31 renal = test system: UO-31 renal
HOP-62 NSCLC = test system: HOP-62 NSCLC
SF-295 CNS = test system: SF-295 CNS

Row | Structure (SMILES) | TGI (BT-549 breast) | TGI (EKVX NSCLC) | TGI (HCC-2998 colon) | TGI (HCT-116 colon) | TGI (HL-60(TB) leukemia) | TGI (HS 578T breast) | TGI (MALME-3M melanoma) | TGI (OVCAR-4 ovarian) | TGI (PC-3 prostate) | TGI (RPMI-8226 leukemia) | TGI (SK-MEL-28 melanoma) | TGI (UACC-257 melanoma) | TGI (UACC-62 melanoma) | TGI (UO-31 renal) | TGI (HOP-62 NSCLC) | TGI (SF-295 CNS) | GI50 (HS 578T breast) | GI50 (MALME-3M melanoma)
1 | CSc1c(C#N)c(S)[nH]c(=O)c1C#N | > 100 µM | > 100 µM | > 100 µM | > 100 µM | > 100 µM | > 100 µM | 51.5 µM | > 100 µM | > 100 µM | > 100 µM | > 100 µM | > 100 µM | > 100 µM | 87.5 µM |  |  |  | 
2 | O=c1c2cc(I)ccc2nc(-c2cccs2)n1/N=C/c1ccccc1 | > 100 µM | > 100 µM | > 100 µM | > 100 µM | > 100 µM |  |  | > 100 µM | > 100 µM | > 100 µM | > 100 µM | > 100 µM | > 100 µM | > 100 µM | > 100 µM | > 100 µM |  | 
3 | CCCCCCCCC/C=C1/CC(CO)(COC(=O)c2ccccc2)OC1=O (stereo unspecified) | 27.1 µM | 28.2 µM | 27.8 µM | 56.2 µM |  | 13 µM | 20.8 µM | 26.5 µM | 23.1 µM |  | 26.6 µM | 27.4 µM | 28.1 µM | 27.2 µM | 19 µM | 21.9 µM |  | 
4 | COc1cc2c[n+](C)c3c4cc(OC)c(OC)cc4ccc3c2cc1OC | > 100 µM | > 100 µM | > 100 µM | > 100 µM |  | > 100 µM | > 100 µM | > 100 µM | > 100 µM | > 100 µM | > 100 µM | > 100 µM | > 100 µM | > 100 µM | > 100 µM | > 100 µM | > 100 µM and 10.3 µM | > 100 µM and 21.7 µM
5 | CC(=O)OCC1OC(n2nc(Cc3ccccc3)c(=S)[nH]c2=S)C(OC(C)=O)C(OC(C)=O)C1OC(C)=O (stereo unspecified) | 41.7 µM |  |  | 47.1 µM | 27.2 µM | 45.4 µM | 83.9 µM | 39.6 µM | > 100 µM |  | > 100 µM | 37.8 µM | 35.5 µM | 51.7 µM | 51.4 µM | > 100 µM |  | 
6 | O=C1c2ccccc2C(=O)N1CC(CN1C(=O)c2ccccc2C1=O)(C(=O)OCc1ccccc1)C(=O)OCc1ccccc1 | > 100 µM |  | > 100 µM | > 100 µM | > 100 µM | > 100 µM | > 100 µM |  | > 100 µM | > 100 µM | > 100 µM |  | > 100 µM | > 100 µM | > 100 µM | > 100 µM |  | 
7 | [N-]=[N+]=CC(=O)CCC(=O)N(c1ccccc1)c1ccccc1 | > 10 µM | > 10 µM |  | > 10 µM | > 10 µM |  | > 10 µM |  | > 10 µM |  | > 10 µM | > 10 µM |  | > 10 µM | > 10 µM | > 10 µM |  | 
8 | NC(Cc1ccc(B(O)O)cc1)C(=O)NC(CO)CO (stereo unspecified) | > 100 µM | > 100 µM | > 100 µM | > 100 µM |  | > 100 µM | > 100 µM | > 100 µM | > 100 µM | > 100 µM | > 100 µM | > 100 µM | > 100 µM | > 100 µM | > 100 µM | > 100 µM |  | 
